Assay results published in patent US20220127297A1, “Novel Antibacterial 3"-Derivatives Of 4,6-Disubstituted 2,5-Dideoxystreptamine Aminoglycoside Antibiotics” (AGILeBiotics B.V., priority 2018, published 2022).
Converted amounts (≈) assume the structure as drawn. Where two headings read alike, the source gives them in different places.

Legend:
K. pneumoniae DSM 26371 = test: MIC 50, broth micro-dilution, DSM strains; format: cell-based, Klebsiella pneumoniae
Source text: (§1) 3.2 Against Selected Bacteria of the ESKAPE Panel and Enterococcus faecalis (DSM Strains)
(§2) Tested reference compounds. Amikacin sulfate (Cat. No. 01693, Chem-Impex), Gentamicin sulfate (Cat. No. G4918, Sigma Aldrich).
(§3) Microbial strains. Enterococcus faecalis DSM 2570, Klebsiella pneumoniae DSM 26371, Acinetobacter baumannii DSM 105126, Enterobacter cloacae 3MRGN (clinical bronchial aspirate isolate).
(§4) Culture media and equipment. BBL™ Mueller Hinton Broth 2 (Lot. BCBW1143, Cat. No. 70192, Sigma); Trypcase Soy Blood-agar plates (Cat. No. 43001, Biomérieux); Cryoinstant (contains 15% glycerol; Cat. No. 822070ZA, VWR International); GasPak™ EZ Standard Incubation Container (Cat. No. 260671, Becton Dickinson); GasPak™ EZ Campy Container System Sachets (Cat. No. 260680, Becton Dickinson); 96-well deep well plate, 1 mL (Cat. No. 0030506.200, Eppendorf); Plate lid (Cat. No. 0030131.525, Eppendorf); 96-well plate, F-bottom (Cat. No. 260860, Nunc); Incubator (Sartorius Certomat BS-1); Laminar flow (Heraeus HS12); UV/VIS meter (Perkin Elmer Lambda Bio+); Platereader (Tecan Infinite M200 Pro).
(§5) Compound preparation. Compounds were prepared in MH2 media at a concentration of 5 mM and stored at 4° C. For testing, solutions of 128 μM were prepared in MH2, for tests against E. faecalis a solution of 512 μM was prepared. Out of these working solutions, 400 μL was transferred to wells in the first column of 96-well deep well plates. Each compound was transferred in triplicate. Plates were previously filled with 200 μL of MH2 media in all wells except for the wells in the first column. After compound and antibiotic addition, the compounds were serial two-fold diluted by transferring 200 μL from the first to the second column, then from the second to the third column and so on. Finally, 200 μL was removed from the last column.
(§6) Inoculum preparation. Microorganisms used were all revived from 15% glycerol storage in Croinstant tubes at −28° C. by plating them on blood agar plates. A. baumanni, and E. cloacae were grown aerobically at 37° C., E. faecalis was grown microaerophilically at 37° C., and K. pneumoniae was grown aerobically at 37° C. Plates were stored at 4° C. for up to two weeks, after which new plates were prepared from −28° C. A single colony was inoculated in MH2 media and grown at 37° C. and 200 rpm to an optical density (measured by UV/Vis spectroscopy) of 0.6-0.8 at 600 nm. Out of these suspensions, actual inoculums were prepared by diluting them to an optical density of 0.1 in MH2 media. From these inoculums, 200 μL was transferred to each well, resulting in a final compound concentration range of 64 μM-31.3 nM for, K. pneumoniae, A. baumanni, and E. cloacae, and 256 μM-125 nM for E. faecalis. Plates inoculated with E. faecalis were placed inside a GasPak™ Container System with GasPak™ Campy Container System sachets. All plates were incubated at 200 rpm for 18 h under the microorganism culturing conditions mentioned above.
(§7) MIC determination. After 18 h of growth, 200 μL was transferred to a 96-well F-bottom plate. The optical density was determined by a plate reader at 600 nm, with 10 s shaking before reading. Triplicate measurements were averaged, and a growth curve was plotted in Excel. The first column in which the growth reached half the value of maximum growth was determined as the MIC50 value for that particular compound.
(§8) MIC50. The MIC50 of a compound was assigned at which the bacterial growth reached half the value of maximum growth.

[1] = test system: Enterobacter cloacae 3MRGN (clinical bronchial aspirate isolate); test: MIC 50, broth micro-dilution, clinical isolate; format: cell-based; conditions: E. Cloacae clinical isolate
Source text: as §1, §2, §3, §4, §5, §6, §7, §8

[2] = Klebsiella pneumoniae, DSM26371, K. pneumoniae DSM 26371, read-out: MIC 50
[3] = Enterobacter cloacae, read-out: MIC 50

Compound | MIC50 (K. pneumoniae DSM 26371; K. pneumoniae DSM 26371) [µM] | MIC50 [1] [µM] | MIC50 (K. pneumoniae DSM 26371; [2]) [µM] | MIC50 [1, 3] [µM]
NCC[C@H](O)C(=O)N[C@@H]1C[C@H](N)[C@@H](O[C@H]2O[C@H](CN)[C@@H](O)[C@@H](O)[C@H]2O)[C@H](O)[C@H]1O[C@H]1O[C@H](CO)[C@@H](O)[C@H](N)[C@H]1O [ABX3002, 3′Epi-KanaA-AHB] | 8 (≈ 4.68 µg/mL) | 16 (≈ 9.37 µg/mL) |  | 
N=C(NCCN)NC1C(O)[C@@H](CO)OC(OC2C(F)[C@H](O[C@H]3OC(CN)[C@@H](O)CC3N)C(N)C[C@H]2NC(=O)[C@@H](O)CCN)[C@@H]1O (stereo partly shown) [ABX5020, Tobra-AHB-F-Gua-2-amino-ethyl] |  |  | 0.5 (≈ 0.328 µg/mL) | 0.5 (≈ 0.328 µg/mL)
N=C(NCC1CCCO1)NC1[C@@H](O)C(OC2[C@@H](F)[C@H](O[C@H]3OC(CN)[C@@H](O)CC3N)C(N)C[C@H]2NC(=O)[C@@H](O)CCN)O[C@H](CO)[C@H]1O (stereo partly shown) [ABX5046, Tobra-AHB-F-Gua tetrahydrofuran-2-yl methyl] |  |  | 0.5 (≈ 0.348 µg/mL) | 1 (≈ 0.697 µg/mL)
N=C(NC[C@H]1CNCCO1)NC1[C@@H](O)C(OC2[C@@H](F)[C@H](O[C@H]3OC(CN)[C@@H](O)CC3N)C(N)C[C@H]2NC(=O)[C@@H](O)CCN)O[C@H](CO)[C@H]1O (stereo partly drawn) [ABX5043, Tobra-AHB-F-Gua (R) morpholin-2-yl methyl] |  |  | 0.5 (≈ 0.356 µg/mL) | 0.25 (≈ 0.178 µg/mL)
N=C(NC[C@@H]1CCNC1)NC1[C@@H](O)C(OC2[C@@H](F)[C@H](O[C@H]3OC(CN)[C@@H](O)CC3N)C(N)C[C@H]2NC(=O)[C@@H](O)CCN)O[C@H](CO)[C@H]1O (stereo partly drawn) [ABX5039, Tobra-AHB-F-Gua (R) pyrrolidine-3-ylmethyl] |  |  | 0.5 (≈ 0.348 µg/mL) | 0.25 (≈ 0.174 µg/mL)
N=C(N)NC1[C@@H](O)C(OC2[C@@H](O)[C@H](O[C@H]3OC(CN)[C@@H](O)[C@H](O)C3N)C(N)C[C@H]2NC(=O)[C@@H](O)CCN)O[C@H](CO)[C@H]1O (stereo partly shown) [ABX4009, KanaB-AHB-Gua] | 1 (≈ 0.627 µg/mL) | 2 (≈ 1.25 µg/mL) |  | 
N=C(N)NC1C(O)[C@@H](CO)OC(OC2C(F)[C@H](O[C@H]3OC(CN)[C@@H](O)CC3N)C(N)C[C@H]2NC(=O)[C@@H](O)CCN)[C@@H]1O (stereo partly shown) [ABX5006, Tobra-AHB-F-Gua] |  |  | < 0.25 | 0.25 to 0.5 (≈ 0.153 to 0.306 µg/mL)
N=C(NCc1cnc[nH]1)NC1[C@@H](O)C(OC2[C@@H](F)[C@H](O[C@H]3OC(CN)[C@@H](O)CC3N)C(N)C[C@H]2NC(=O)[C@@H](O)CCN)O[C@H](CO)[C@H]1O (stereo partly shown) [ABX5050, Tobra-AHB-F-Gua imidazol-5-yl methyl] |  |  | 0.5 (≈ 0.346 µg/mL) | 1 to 2 (≈ 0.693 to 1.39 µg/mL)
N=C(N)NC1[C@@H](O)C(OC2[C@@H](F)[C@H](O[C@H]3OC(CN)[C@@H](O)[C@H](O)C3N)C(N)C[C@H]2NC(=O)[C@@H](O)CCN)O[C@H](CO)[C@H]1O (stereo partly shown) [ABX4006, KanaB-AHB-F-Gua] |  | 0.25 to 0.5 | 0.125 (≈ 0.0786 µg/mL) | 
N=C(NCCCO)NC1[C@@H](O)C(OC2[C@@H](F)[C@H](O[C@H]3OC(CN)[C@@H](O)CC3N)C(N)C[C@H]2NC(=O)[C@@H](O)CCN)O[C@H](CO)[C@H]1O (stereo partly shown) [ABX5041, Tobra-AHB-F-Gua 3-hydroxy-propyl] |  |  | 0.5 (≈ 0.335 µg/mL) | 1 (≈ 0.671 µg/mL)
NCCC(O)C(=O)NC1CC(N)C(OC2OC(CN)C(O)C(O)C2O)C(F)C1OC1OC(CO)C(O)C(N)C1O (stereo not drawn) [ABX3005, 3′Epi-KanaA-AHB-F] | 1 (≈ 0.588 µg/mL) | 4 (≈ 2.35 µg/mL) |  | 
N=C(NCCCN)NC1[C@@H](O)C(OC2[C@@H](F)[C@H](O[C@H]3OC(CN)[C@@H](O)CC3N)C(N)C[C@H]2NC(=O)[C@@H](O)CCN)O[C@H](CO)[C@H]1O (stereo partly shown) [ABX5030, Tobra-AHB-F-Gua-3-amino-propyl] |  |  | 0.125 (≈ 0.0837 µg/mL) | 1 (≈ 0.67 µg/mL)
N=C(NCCO)NC1[C@@H](O)C(OC2[C@@H](F)[C@H](O[C@H]3OC(CN)[C@@H](O)CC3N)C(N)C[C@H]2NC(=O)[C@@H](O)CCN)O[C@H](CO)[C@H]1O (stereo partly shown) [ABX5029, Tobra-AHB-F-Gua 2-hydroxy-ethyl] |  |  | 0.125 to 0.25 (≈ 0.0821 to 0.164 µg/mL) | 1 (≈ 0.657 µg/mL)
N=C(N)NC1[C@@H](O)C(OC2[C@@H](F)[C@H](O[C@H]3OC(CN)[C@@H](O)[C@H](O)C3N)C(N)C[C@H]2NC(=O)[C@@H](O)CCN)O[C@H](CO)[C@H]1O (stereo partly drawn) [ABX4004, 3′epi-KanaB-AHB-F-Gua] | 0.25 (≈ 0.157 µg/mL) | 1 (≈ 0.629 µg/mL) |  | 
N=C(N)N[C@@H]1[C@@H](O)[C@@H](O[C@@H]2[C@@H](O)[C@H](O[C@H]3O[C@H](CN)[C@@H](O)[C@@H](O)[C@H]3N)[C@@H](N)C[C@H]2NC(=O)[C@@H](O)CCN)O[C@H](CO)[C@H]1O [ABX4005, 3′Epi-KanaB-AHB-Gua] | 1 to 2 | 4 to 8 |  | 
N=C(NC[C@@H]1CCCN1)NC1[C@@H](O)C(OC2[C@@H](F)[C@H](O[C@H]3OC(CN)[C@@H](O)CC3N)C(N)C[C@H]2NC(=O)[C@@H](O)CCN)O[C@H](CO)[C@H]1O (stereo partly drawn) [ABX5026, Tobra-AHB-F-Gua (S) pyrrolidine-2-yl-methyl] |  |  | 0.125 (≈ 0.087 µg/mL) | 0.25 (≈ 0.174 µg/mL)
NCCC(O)C(=O)NC1CC(N)C(OC2OC(CN)C(O)C(O)C2N)C(O)C1OC1OC(CO)C(O)C(N)C1O (stereo not shown) [ABX4001, KanaB-AHB] | 0.5 (≈ 0.292 µg/mL) | 2 (≈ 1.17 µg/mL) |  | 
NCC[C@H](O)C(=O)N[C@@H]1CC(N)[C@@H](O[C@H]2OC(CN)[C@@H](O)[C@@H](O)C2N)[C@H](O)C1OC1O[C@H](CO)[C@@H](O)C(N)[C@H]1O (stereo partly drawn) [ABX4002, 3′Epi-KanaB-AHB] | 1 (≈ 0.585 µg/mL) | 4 (≈ 2.34 µg/mL) |  | 
NCCC(O)C(=O)NC1CC(N)C(OC2OC(CN)C(O)C(O)C2N)C(F)C1OC1OC(CO)C(O)C(N)C1O (stereo not shown) [ABX4007, KanaB-AHB-F] | 0.5 (≈ 0.293 µg/mL) | 1 to 2 |  | 
N=C(NCC1CCOC1)NC1[C@@H](O)C(OC2[C@@H](F)[C@H](O[C@H]3OC(CN)[C@@H](O)CC3N)C(N)C[C@H]2NC(=O)[C@@H](O)CCN)O[C@H](CO)[C@H]1O (stereo partly shown) [ABX5051, Tobra-AHB-F-Gua tetrahydrofuran-3-yl methyl] |  |  | 0.5 (≈ 0.348 µg/mL) | 1 (≈ 0.697 µg/mL)
